# Measured values as given in paper PMC9827630, “Intra-colony venom diversity contributes to maintaining eusociality in a cooperatively breeding ant” (BMC Biology, 2023).
# pEC50: −log10 of the molar value. Where a SMILES comes first, the peptide text is derived from it. Bridges are numbered along the chain shown (N, C = ends). Where no end group is shown, it is not given here.
# How the values were obtained:
# [1] = tested on: Female fruit flies (D. melanogaster strain Canton-S); assay: Fruit fly injection assay (lethality, paralysis, climbing); assay type: in vivo, Drosophila melanogaster
# Experimental: Female fruit flies (D. melanogaster strain Canton-S) were injected four to six days post-emergence. Female flies were used because their larger size makes injection easier. Groups of eight female flies were assayed in triplicate for each dose tested. Injection needles were formed from glass capillary tubes (#3-000-203-G/X, Drummond, Birmingham, AL, USA) using a micropipette puller (Sutter Instrument Co. Model P-97), with the fine tip manually trimmed afterwards using scissors. Needles then were filled with mineral oil, connected to a Nanoliter 2000 microinjector ([…], Bensenville, IL USA) equipped with a foot pedal, and ~1 μL of peptide solution or water aspirated. Each group of flies were immobilized by cooling for approximately 2 min on ice, and then decanted on the top of the ‘injection stage’, a petri dish filled with ice. Under a dissecting microscope, each fly was carefully impaled on the lateral thorax behind the wing, and 50.6 nL of venom peptide or water was injected. After injection, each group of flies were returned to their 5 mL plastic tube at room temperature and their behavior observed.
# F11 = assay: Ion permeability F11; assay type: cell-based, mouse; conditions: ions listed as permeant; - = none
# HEK = assay: Ion permeability HEK; assay type: cell-based, Human; conditions: ions listed as permeant; - = none
# [2] = tested on: F11 (mouse neuroblastoma × rat dorsal root ganglion (DRG) neuron hybrid) cells; assay: Calcium imaging of F11 cells (FLIPR); assay type: cell-based; conditions: increase in [Ca2+]i, max-min fluorescence over 300 s; read-out: EC50 (F11 cells, Table S2)
# Experimental: F11 (mouse neuroblastoma × rat dorsal root ganglion (DRG) neuron hybrid) cells were cultured as previously described. Cells were maintained on Ham’s F12 media supplemented with 10 % fetal bovine serum, 100 μM hypoxanthine, 0.4 μM aminopterin, and 16 μM thymidine (Hybri-MaxTM, Sigma Aldrich). 384-well imaging plates (Corning, Lowell, MA, USA) were seeded 48 h prior to imaging resulting in 90 – 95% confluence at imaging. Cells were incubated for 30 min with Calcium 4 assay component A, as per the manufacturer’s instructions (Molecular Devices, Sunnyvale, CA) in physiological salt solution (PSS; composition in mM: 140 NaCl, 11.5 D-glucose, 5.9 KCl, 1.4 MgCl2, 1.2 NaH2PO4, 5 NaHCO3, 1.8 CaCl2, 10 HEPES) at 37°C. […] Signals were read every second for 10 s before, and 300 s after, the addition of peptides in PSS supplemented with 0.1% bovine serum albumin. All data represent mean ± SEM of a representative assay in triplicate. Fluorescence changes on peptide addition were compared to addition of negative control solution (0.1% BSA in PSS). The resulting maximum-minimum fluorescence in the 300 s period after peptide addition was recorded as the response.
# [3] = tested on: Cryptococcus neoformans var. grubii H99; ATCC 208821; assay: Antifungal growth inhibition (CO-ADD); assay type: cell-based; conditions: for Max response ± SEM: percentage growth inhibition, difference in absorbance 600 and 570 nm after resazurin, 35°C 2 h, mean ± SEM; for MIC: sigmoidal dose-response fit of growth inhibition, resazurin read-out
# Experimental: (§1) Antimicrobial and cytotoxicity assays were performed by CO-ADD (The Community for Antimicrobial Drug Discovery, Institute for Molecular Bioscience, The University of Queensland). […] Percentage growth inhibition was calculated using negative controls (media only) and positive controls (no peptide). For the hemolysis assays, human whole blood was washed three times with 3 volumes of 0.9% NaCl and then resuspended in 0.9% NaCl to a concentration of 0.5 × 10^8 cells/mL. Cells were incubated for 1 h at 37°C with or without the peptide. After incubation, plates were centrifuged at 1000 g for 10 min to pellet cells and debris and hemolysis determined by measuring the supernatant absorbance at 405 nm.
# [4] = tested on: Candida albicans ATCC 90028; assay: Antifungal growth inhibition (CO-ADD); assay type: cell-based; conditions: absorbance at 530 nm; for Max response ± SEM: percentage growth inhibition, mean ± SEM; for MIC: sigmoidal dose-response fit of growth inhibition
# Experimental: as §1
# [5] = tested on: House crickets (Acheta domesticus); assay: Insect incapacitation assay, house crickets; assay type: in vivo
# Experimental: House crickets (A. domesticus; Pisces Live Food, QLD, Australia) (average mass 50 mg), were injected intra-abdominally with 40 nmol/g of each synthetic peptide (in 2 μL water). […] Lethality was assessed at 24 h. […] To calculate dose-response curves, a four-parameter Hill equation with variable Hill slope was fitted to the data (GraphPad Prism 8.02). All data are expressed as the mean ± standard error of the mean (SEM) and are representative of at least three independent data points. The percentage of crickets incapacitated by a dose of 40 nmol/g, was compared with negative control (water injection) by one-way ANOVA Dunnett’s multiple comparisons test (GraphPad Prism8).
# [6] = tested on: Klebsiella pneumoniae ATCC 700603; assay: Antimicrobial growth inhibition (CO-ADD); assay type: cell-based; conditions: absorbance at 600 nm; for Max response ± SEM: percentage growth inhibition, mean ± SEM; for MIC: sigmoidal dose-response fit of growth inhibition
# Experimental: as §1
# [7] = tested on: Acinetobacter baumannii ATCC 19606; assay: Antimicrobial growth inhibition (CO-ADD); assay type: cell-based; conditions: absorbance at 600 nm; for Max response ± SEM: percentage growth inhibition, mean ± SEM; for MIC: sigmoidal dose-response fit of growth inhibition
# Experimental: as §1
# [8] = tested on: Pseudomonas aeruginosa ATCC 27853; assay: Antimicrobial growth inhibition (CO-ADD); assay type: cell-based; conditions: absorbance at 600 nm; for Max response ± SEM: percentage growth inhibition, mean ± SEM; for MIC: sigmoidal dose-response fit of growth inhibition
# Experimental: as §1
# [9] = tested on: Escherichia coli ATCC 25922; assay: Antimicrobial growth inhibition (CO-ADD); assay type: cell-based; conditions: absorbance at 600 nm; for Max response ± SEM: percentage growth inhibition, mean ± SEM; for MIC: sigmoidal dose-response fit of growth inhibition
# Experimental: as §1
# [10] = tested on: Staphylococcus aureus ATCC 43300; assay: Antimicrobial growth inhibition (CO-ADD); assay type: cell-based; conditions: for Max response ± SEM: percentage growth inhibition, mean ± SEM; for Max response ± SEM / MIC: absorbance at 600 nm; for MIC: sigmoidal dose-response fit of growth inhibition
# Experimental: as §1
# Human red blood cells = assay: Hemolysis assay (CO-ADD); assay type: cell-based; conditions: hemolysis, washed human blood 0.5 × 10^8 cells/mL in 0.9% NaCl, 1 h at 37°C, supernatant absorbance at 405 nm; mean ± SEM
# Experimental: as §1
# panel of microbes = assay: Antimicrobial screening, summary over the panel of microbes; assay type: cell-based; conditions: all strains of the panel (for Rm54a and Rm55a: strains other than S. aureus)
# Experimental: as §1
# [11] = tested on: Human embryonic kidney cells ATCC CRL-1573; assay: Cytotoxicity assay (CO-ADD), resazurin; assay type: cell-based; conditions: percentage growth inhibition, resazurin fluorescence, 37°C 5% CO2; mean ± SEM
# Experimental: as §1
# HAP1 cells = assay: Cell viability assay, resazurin; assay type: cell-based
# Experimental: (§2) In addition to the cytotoxicity assays performed by CO-ADD, we screened the synthetic peptides for toxicity in cell viability assays using HAP1, MM96L, and HEK293T cells. peptides were reconstituted in 100% DMSO then diluted in cell media (HAP1: IMDM (Sigma Aldrich) with 10% FBS and 1% Penicillin/Streptomycin (P/S); MM96L: RPMI (Gibco) with 10% FBS, 1% P/S and 1% GlutaMAX (Gibco); HEK293T: DMEM high glucose (Gibco), with 10% FBS and 1% P/S. Trypsinized cells ([…]) were seeded in each well of a 96-well plate. 0.01 to 1000 μM peptide was added to each well after 24 h, and the cells incubated for an additional 74 h. After incubation, the medium was aspirated from each well and 150 μL of fresh medium containing a 0.002% solution of resazurin (Sigma-Aldrich) was added to the wells and incubated for 4 h at 37 °C. The absorbance was measured at 570 nm using a microplate spectrophotometer (FLUOstar Omega, BMG Labtech, Germany). Percentage cell viability at concentrations of 10 and 100 μM peptide were compared with negative control by one-way ANOVA Dunnett’s multiple comparisons test (GraphPad Prism8).
# [12] = tested on: MM96L cells (melanoma cell line); assay: Cell viability assay, resazurin; assay type: cell-based; conditions: 100 μM peptide
# Experimental: as §2
# HEK293T cells = assay: Cell viability assay, resazurin; assay type: cell-based; conditions: 100 μM peptide
# Experimental: as §2
Molecule,ion permeability F11 (F11),ion permeability HEK (HEK),Max response ± SEM [3],MIC [3],Max response ± SEM [4],MIC [4],Max response ± SEM [6],MIC [6],Max response ± SEM [7],MIC [7],Max response ± SEM [8],MIC [8],Max response ± SEM [9],MIC [9],Max response ± SEM [10],MIC [10],Growth inhibition over the microbial strains examined (panel of microbes),Cytotoxicity against MM96L cells [12],Cytotoxicity against HEK293T cells (HEK293T cells),other results
VAPIVAMAGLGLFAAAVAGLDWLSKKV-NH2 [Rm1a],"Ca2+,Na+,Th+","Ca2+,Na+,Th+",36 ± 7,>12 µM,67 ± 4,>12 µM,0 ± 2,>12 µM,3 ± 2,>12 µM,-2 ± 9,>12 µM,9 ± 3,>12 µM,-19 ± 7,>12 µM,–,–,–,"Flies dead ([1]; 50 pmol/g injected, mean ± SD): 25.0 ± 12.5%; Flies paralyzed ([1]; 50 pmol/g injected, mean ± SD): 95.8 ± 7.2%; Instant death of flies ([1]; 5 nmol/g injected, groups of eight female flies in triplicate, mean ± SD): 100 ± 0%; LD50 5 min (dose required to kill 50% of flies 5 min after injection) ([1]; D. melanogaster, 5 min after injection): 0.17 nmol/g; PD50 5 min (dose required to paralyze 50% of flies within 5 min) ([1]; D. melanogaster, within 5 min): 23 pmol/g; pEC50 [2]: 5.24; Lethality in crickets at lowest dose tested ([5]; 40 pmol/g, intra-abdominal injection, lethality assessed at 24 h): ultimately lethal; Incapacitation of crickets ([5]; 40 nmol/g, intra-abdominal injection, observed 30 min): able to incapacitate crickets; Onset of incapacitation in crickets ([5]; 40 and 4 nmol/g, delayed at lower doses): immediate; PD50 30 min (dose required to paralyze 50% of crickets 30 min after injection) ([5]; intra-abdominal injection, n = 3 per group): 0.3 nmol/g"
LWPFLISLIPTVIDLARNL-NH2 [Rm54a],"Ca2+,Na+,Th+","Ca2+,Na+,Th+",-15 ± 2,–,10 ± 3,–,10 ± 2,–,22 ± 3,–,16 ± 1,–,10 ± 1,–,102 ± 1,–,not affecting any of the other strains examined,not the melanoma cell line MM96L,cytotoxic against HEK293T cells,"Motor behavior (climbing assay) ([1]; 5 nmol/g injected, climbing assay 5 min after injection, significant versus control): disrupted motor behavior; Max response ± SEM (Human red blood cells): 95 ± 6; Max response ± SEM [11]: 95 ± 0; Cytotoxicity to HAP cells (HAP1 cells): cytotoxic to HAP cells; HAP cell viability (HAP1 cells; 10 μM peptide, n = 3 per group): significantly reduced HAP cell viability; Inhibition of S. aureus (in words) [10]: complete inhibition"
CC[C@H](C)[C@H](NC(=O)[C@H](CCC(=O)O)NC(=O)[C@H](CCC(N)=O)NC(=O)[C@H](CCSC)NC(=O)[C@H](CC(N)=O)NC(=O)[C@@H](N)CO)C(=O)N[C@@H](CCSC)C(=O)N[C@@H](CCCCN)C(=O)N[C@@H](CCCCN)C(=O)N[C@@H](CC(C)C)C(=O)N[C@H]1CSSC[C@@H](C(=O)N[C@@H](CCCCN)C(=O)N[C@@H](CCSC)C(=O)N[C@@H](CC(C)C)C(=O)NCC(=O)N[C@@H](CC(C)C)C(=O)O)NC(=O)[C@H](CCSC)NC(=O)[C@H](Cc2c[nH]c3ccccc23)NC(=O)[C@H](C)NC(=O)[C@@H]2CCCN2C(=O)[C@H](CCSC)NC(=O)[C@H](CCCCN)NC(=O)[C@H](CCCCN)NC(=O)[C@H](CC(=O)O)NC(=O)[C@H]([C@@H](C)O)NC1=O [Rm9a] (H-SNMQEIMKKLCTDKKMPAWMCKMLGL-OH; disulfide 11-21; N-terminus assumed),–,–,-86 ± 5,>11 µM,1 ± 2,>11 µM,5 ± 2,>11 µM,9 ± 0,>11 µM,5 ± 3,>11 µM,3 ± 2,>11 µM,3 ± 5,>11 µM,no inhibitory activity,cytotoxic to both HEK293T and MM96L cells,cytotoxic to both HEK293T and MM96L cells,–
